# Patent US20180313843A1, “SAMHD1 MODULATION FOR TREATING RESISTANCE TO CANCER THERAPY” (priority 2015, published 2018)
# Columns and labels:
# [1] = system: intracellular Ara-CTP, CTP and dCTP levels; assay: Effect of 3-DU and Ara-C on intracellular triphosphate levels; format: cell-based; conditions: 3-DU treatment in combination with Ara-C
# Procedure: dNTP measurement. 5×10^5 cells were treated with 10 μg/ml Ara-C 13C3 (Santa Cruz) and incubated at 37° C. in a humidified 5% CO2 incubator for 6 hours. Subsequently, cells were washed twice in 1×PBS, pelleted and stored at −20° C. until measurement. The samples were analyzed at the Institute of Clinical Pharmacology (Goethe University Frankfurt) by liquid chromatography-electrospray ionization-tandem mass spectrometry as previously described (reference 8).
# Briefly, the analytes were extracted by protein precipitation with methanol. […] Additional to the analytes reported in the publication, 13C3-Ara-CMP, 13C3-Ara-CDP and 13C3-Ara-CTP were quantified using the validated method and cytidine-^13C9, ^15N3-5′-triphosphate as internal standard (IS). The precursor-to-product ion transitions used as quantifiers were m/z 327.0→115.1 for 13C3-Ara-CMP, m/z 407.0→115.1 for 13C3-Ara-CDP and m/z 487.0→115.1 for 13C3-Ara-CTP. A calibration curve was constructed for the quantitation of 13C3-Ara-CMP while no calibration standards were commercially available for 13C3-Ara-CDP and 13C3-Ara-CTP. For this reason, these analytes were quantified semiquantitatively by comparing the peak area ratios (analyte/IS) determined in the differently treated samples. […]
# HEL SAMHD1 wt = assay: Cell viability, Ara-C with or without 3-DU, SAMHD1 wt over-expression; format: cell-based, human; conditions: for dependence of anti-leukemic activity on expression levels of SAMHD1: THP-1 (−/−) vs (+/+), AML panel and HEL versus HEL SAMHD1 wt cells
# THP-1 −/− = assay: Cell viability, Ara-C with or without 3-DU and other NAs, SAMHD1 knock-out; format: cell-based, human
# Procedure: THP-1 CRISP/Cas9 control and SAMHD1 knock-out cells were provided by Prof. Veit Hornung and cultivated in RPMI supplemented with 10% FCS, 100 IU/ml penicillin, and […] streptomycin. PDX cells were thawed and cultivated as previously described (Vick, 2015).
# (§1) Cell viability assay. Cell viability of the AML cell lines and primary AML cultures were determined by the 3-(4,5-dimethylthiazol-2-yl)-2,5-diphenyltetrazolium bromide (MTT) dye reduction assay after 96 hour incubation as described previously (reference 7). Due to lower cell proliferation frequencies of the primary cells the CellTiter-Glo® Luminescent Cell Viability Assay (Promega) was used according to manufacturer's instruction. Here, the number of viable cells was determined 96 hours post treatment based on the quantification of the ATP levels.
# [2] = system: HELrAra-C, HL-60rAra-C and Molm-13rAra-C; assay: Cytarabine cytotoxicity in Ara-C resistant AML sublines; format: cell-based, human
# Procedure: Ara-C resistant cell lines THP-1, HEL, HL-60, Molm13, and Molt4 were established by continuous exposure to increasing drug concentrations and are part of the Resistant Cancer Cell Line (RCCL) collection (http://www.kent.ac.uk/stms/cmp/RCCL/RCCLabout). The generation of resistant cell lines required 1 to 2 years, depending on the cell line used. All cell lines were maintained in IMDM supplemented with 10% FCS (SIG-M5 20% FCS), […] L-Glutamine, 100 IU/ml penicillin, and […] streptomycin at 37° C. in a humidified 5% CO2 incubator. 293T cells were maintained as previously described (Keppler et al).
# as §1
# Remarkably, expression levels of SAMHD1 were increased in resistant cells relative to the parental cell lines (FIGS. 8A and B).
# OCI-AML3 shSAMHD1 = assay: Cell viability, Ara-C with or without 3-DU, SAMHD1 knock-down; format: cell-based, human; conditions: OCI-AML-3, SAMHD1 shRNA compared to control shRNA
# [3] = system: THP-1 (−/−) and THP-1 (+/+) cells; assay: Cytarabine triphosphate measurement by liquid chromatography tandem mass spectrometry; format: cell-based, human; conditions: 10 μg/ml cytarabine for 6 h
# Procedure: dNTP measurement. […] Subsequently, cells were washed twice in 1×PBS, pelleted and stored at −20° C. until measurement. The samples were analyzed at the Institute of Clinical Pharmacology (Goethe University Frankfurt) by liquid chromatography-electrospray ionization-tandem mass spectrometry as previously described (reference 8).
# Briefly, the analytes were extracted by protein precipitation with methanol. An anion exchange HPLC column (BioBasic AX, Thermo) was used for the chromatographic separation and a 5500 QTrap (Sciex, Darmstadt, Germany) was used as analyzer, operating as triple quadrupole in positive multiple reaction monitoring (MRM) mode. Additional to the analytes reported in the publication, 13C3-Ara-CMP, 13C3-Ara-CDP and 13C3-Ara-CTP were quantified using the validated method and cytidine-^13C9, ^15N3-5′-triphosphate as internal standard (IS). The precursor-to-product ion transitions used as quantifiers were m/z 327.0→115.1 for 13C3-Ara-CMP, m/z 407.0→115.1 for 13C3-Ara-CDP and m/z 487.0→115.1 for 13C3-Ara-CTP. A calibration curve was constructed for the quantitation of 13C3-Ara-CMP while no calibration standards were commercially available for 13C3-Ara-CDP and 13C3-Ara-CTP. For this reason, these analytes were quantified semiquantitatively by comparing the peak area ratios (analyte/IS) determined in the differently treated samples.
# THP-1 cells = assay: Cytotoxic effects of cytarabine in VLP-treated THP-1 cells; format: cell-based, human; conditions: Vpx-VLPs treated THP-1 cells
# AML cell lines = assay: Cell viability assay (MTT), cytarabine in panel of AML cell lines; format: cell-based; conditions: Homo sapiens, read-out: IC50 values (concentrations inhibiting 50% of cell growth) of cytarabine; range over AML cell lines
# Procedure: as §1
# glioma cell line U251-MG = assay: Effect of Vpx-VLPs on cytotoxic activity of cytarabine in glioma cells; format: cell-based; conditions: U251-MG treated with Vpx-VLPs
# SIG-M5 cells = assay: Cytarabine toxicity after SAMHD1 shRNA knock-down; format: cell-based, human; conditions: SIG-M5, SAMHD1 shRNA compared to control shRNA
# BFTC 905 = assay: Ara-C/SAMHD1-inhibitor combination treatment, urothelial carcinoma cells; format: cell-based; conditions: Homo sapiens, BFTC-905, read-out: IC50 value Ara-C
# SAMHD1 = biological target: T1, SAMHD1 (Homo sapiens, UniProt Q9Y3Z3); assay: Enzymatic in vitro assay with bacterially expressed SAMHD1 protein (triphosphohydrolase activity); format: biochemical; conditions: dGTP used as activator of SAMHD1
# T1 construct: made in house
# Source text: SAMHD1 hydrolyzes intracellular dNTPs resulting in a reduction of intracellular dNTP pools.
# T1 sequence (Q9Y3Z3 whole entry): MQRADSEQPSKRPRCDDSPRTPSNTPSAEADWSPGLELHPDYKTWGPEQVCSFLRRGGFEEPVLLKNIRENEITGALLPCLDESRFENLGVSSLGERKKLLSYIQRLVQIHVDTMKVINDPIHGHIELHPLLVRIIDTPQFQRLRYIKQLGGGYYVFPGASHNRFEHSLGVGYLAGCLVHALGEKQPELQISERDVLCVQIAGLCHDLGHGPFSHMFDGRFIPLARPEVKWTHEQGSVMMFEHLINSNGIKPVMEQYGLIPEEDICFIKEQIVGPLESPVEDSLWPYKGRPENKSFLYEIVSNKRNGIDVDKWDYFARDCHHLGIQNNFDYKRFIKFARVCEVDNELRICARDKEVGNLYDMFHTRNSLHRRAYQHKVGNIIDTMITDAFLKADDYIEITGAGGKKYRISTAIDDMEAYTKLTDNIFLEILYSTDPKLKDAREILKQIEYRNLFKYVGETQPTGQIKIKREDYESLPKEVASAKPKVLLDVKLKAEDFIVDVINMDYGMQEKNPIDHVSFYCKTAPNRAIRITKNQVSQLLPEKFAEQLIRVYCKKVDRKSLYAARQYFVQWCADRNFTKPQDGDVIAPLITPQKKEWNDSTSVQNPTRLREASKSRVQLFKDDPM
compound,measurement,setting,value
"O=C1C=CN([C@@H]2O[C@H](CO)[C@@H](O)[C@H]2O)C(=O)C1 [3-DU, 3-deazauridin]",intracellular Ara-CTP levels,[1],strongly increased
same,intracellular cytodine-triphosphate (CTP) and dCTP levels,[1],reducing
COc1nc(N)nc2c1ncn2[C@@H]1O[C@H](CO)[C@@H](O)[C@@H]1O [nelarabine],dependence of anti-leukemic activity on expression levels of SAMHD1,HEL SAMHD1 wt,depends on expression levels of SAMHD1 albeit to a lesser extent than for cytarabine
same,IC50 lower in THP-1 (−/−) cells than in THP-1 (+/+) cells,THP-1 −/−,5 fold
"Nc1ccn([C@@H]2O[C@H](CO)[C@@H](O)[C@@H]2O)c(=O)n1 [Ara-C, cytarabine]",IC50,"[2]; Homo sapiens, read-out: IC50 values of cytarabine, range over highly resistant sublines of HEL, HL-60 and MOLM-13",24 to 94 µg/mL
same,toxicity of cytarabine after reduction of SAMHD1 levels using Vpx-VLPs,[2]; all three cell lines tested,increased toxicity
same,increase of cytarabine toxicity by SAMHD1 knock-down,OCI-AML3 shSAMHD1,about 6 fold
same,"cytarabine triphosphate amounts accumulated, THP-1(−/−) compared with THP-1(+/+)",[3],About 20 fold
same,increase of cytarabine's anti-leukemic activity,THP-1 cells,about 20 fold
same,IC50,AML cell lines,0.0078 to 0.56 µg/mL
same,enhancement of the anti-tumoral activity of cytarabine,glioma cell line U251-MG,up to 10 fold
same,decrease of sensitivity to cytarabine by wt SAMHD1 over-expression,HEL SAMHD1 wt; HEL wt SAMHD1 compared to parental HEL or HEL SAMHD1 D207N,about 70 fold
same,increase of cytarabine toxicity by SAMHD1 knock-down,SIG-M5 cells,~9 fold
same,increase of cytarabine toxicity in SAMHD1 knock-out cells,THP-1 −/−; THP-1 (−/−) relative to control THP-1 (+/+),about 50 fold
same,IC50,BFTC 905,0.021 µg/mL
Nc1nc(F)nc2c1ncn2[C@@H]1O[C@H](CO)[C@@H](O)[C@@H]1O [fludarabine],IC50 lower in THP-1 (−/−) cells than in THP-1 (+/+) cells,THP-1 −/−,5 fold
Nc1nc(Cl)nc2c1ncn2[C@@H]1O[C@H](CO)[C@@H](O)[C@@H]1F [clofarabine],dependence of anti-leukemic activity on expression levels of SAMHD1,HEL SAMHD1 wt,depends on expression levels of SAMHD1 albeit to a lesser extent than for cytarabine
same,IC50 lower in THP-1 (−/−) cells than in THP-1 (+/+) cells,THP-1 −/−,2 fold
cytarabine triphosphate,substrate or activator of SAMHD1's triphosphohydrolase activity,SAMHD1,"direct substrate, but not as an activator"
Nc1nc2c(ncn2[C@@H]2O[C@H](CO)[C@@H](O)[C@@H]2O)c(=O)[nH]1 [Ara-G],dependence of anti-leukemic activity on expression levels of SAMHD1,HEL SAMHD1 wt,depends on expression levels of SAMHD1 albeit to a lesser extent than for cytarabine
